Test [1] concerns bacterial strains that express KPC β-lactamases. The experiment in a line: Standard BLI potentiation MIC / synergy MIC (sMIC) assays run in the presence of a β-lactam, KPC expressing strains. It is filed as cell-based. The settings on record: more active for at least one KPC strain and/or better spectrum of activity than Avibactam; BLI in combination with a β-lactam. The text has this:
Unless otherwise indicated, the activity of the BLI compounds can be described by the MIC value obtained from a Synergy MIC assay or a BLI potentiation assay (e.g as described herein), both of which are run in the presence of a β-lactam.
A set of β-lactamase expressing isogenic E. coli strains was constructed by cloning a β-lactamase gene into a customized derivative of pBR322 (GenBank Accession Number J01749) and transforming the engineered plasmids into E. coli. The NdeI restriction site within the plasmid backbone of pBR322 was removed to generate pBR322 ΔNdeI. The pBR322 ΔNdeI vector itself, minus the blaTEM-1 gene, was amplified using two primers: (1) pBR-Pbla 5′-cgcatatgactettectttttcaatattattg-3, SEQ ID 1, a primer with an engineered NdeI restriction site at the 3′ end of the blaTEM-1 promoter and (2) pBR-vec-1 5′-[…]-3′, SEQ ID 2, a primer with an engineered BamHI restriction site at the 3′ end of the blaTEM-1 open reading frame. The chloramphenicol resistance gene, cat, was generated by PCR amplification from pKD3 (GenBank Accession Number AY048742) using primers with an engineered NdeI restriction site at the 5′ end (Pbla-cat 5′-[…]-3′, SEQ ID 3) and an engineered BamHI restriction site at the 3′ end (Vec-1-cat 5′-[…]-3′, SEQ ID 4) of the resistance gene. The two PCR products, pBR322 ΔNdeI and cat were ligated together generating pBR-CBST (pBR322 ΔNdeI ΔTEM-1::cat Seq. ID 5) which retains both the pBR322 tetracycline resistance cassette, tetA, and the plasmid origin of replication but the blaTEM-1 gene was replaced by the cat gene.
Using this engineering strategy a number of plasmids producing β-lactamase genes from different classes (see below) were generated using synthetic genes with an engineered NdeI restriction site at the 5′ end and BamHI restriction site at the 3′ end of each gene (GenScript). Both the synthetic β-lactamase genes and cat gene were ligated into the NdeI/BamHI sites of the pBR322 ΔNdeI PCR product and transformed into electrocompetent E. coli ElectroMax DH10B (Invitrogen/Life Technologies). E. coli DH10B harboring the recombinant plasmids were selected on LB agar (supplemented with 25 μg/mL tetracycline) and single isolated colonies were then inoculated into 5 mL LB media (supplemented with 25 μg/mL tetracycline), and incubated at 37° C. with aeration (250 rpm) for 18 hrs. The cultures were frozen back at −80° C. in 20% glycerol. The DNA sequence of the cloned β-lactamase genes was confirmed. The β-lactamase gene expression in the recombinant E. coli strains was driven by the blaTEM-1 promoter in the pBR-CBST plasmid and was characterized by MIC profiling of the E. coli recombinant strains against comparator β-lactam/BLI combinations in broth microdilution assay.
The experimental protocol was performed according to Clinical and Laboratory Standards Institute (CLSI) guidelines with modifications as described below (CLSI guidelines can be derived from the CLSI document M07-A9 published in January 2012: “Methods for Dilution Antimicrobial Susceptibility Tests for Bacteria That Grow Aerobically; Approved Standard-Ninth Edition”).
To prepare for MIC testing, frozen glycerol stocks of clinical isolates (Klebsiella pneumoniae, Eschericia coli, Enterobacter spp, Citrobacter spp, or Pseudomonas aeruginosa) were used to streak for isolated colonies on rich, non-selective, tryptic soy agar containing 5% sheep's blood (TSAB). Frozen glycerol stocks of laboratory engineered, isogenic E. coli strains, which contain cloned β-lactamase expressing plasmids were used to streak for isolated colonies on rich, selective LB agar supplemented with 25 μg/mL tetracycline to maintain the plasmid. All strains were incubated at 37° C. for 18-24 hrs.
On the day of testing, primary cultures were started by scraping off 5-10 colonies from the TSAB plates containing clinical strains or the tetracycline supplemented LB plates containing engineered strains. […]

The test system of test [2] is bacterial strains that express the class D cephalosporinase OXA-15. The experiment in a line: Standard BLI potentiation MIC / synergy MIC (sMIC) assays run in the presence of a β-lactam, OXA-15 expressing strains. It is filed as cell-based, E. coli. Particulars: BLI in combination with a β-lactam; comparison with Avibactam (comparator compound CCC). The method, boiled down: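 Isogenic E. coli DH10B carrying cloned β-lactamase genes on pBR322-derived plasmid (blaTEM-1 promoter, tetracycline 25 μg/mL) tested by CLSI broth microdilution in CAMHB. Test compound and β-lactam each diluted and combined; MIC reported in presence of β-lactam.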

Structures can show the parent of a compound that is named as a salt.

These results are taken from patent US8962844B2, “1,3,4-oxadiazole and 1,3,4-thiadiazole β-lactamase inhibitors” (priority 2012, dated 2015).

In the case of `O=C1N2C[C@@H](CC[C@H]2c2nnc(C3CCNC3)o2)N1OS(=O)(=O)O` (stereo partly drawn) [Compound 710, (2S,5R)-7-oxo-2-(5-(pyrrolidin-3-yl)-1,3,4-oxadiazol-2-yl)-1,6-diazabicyclo[3.2.1]octan-6-yl hydrogen sulfate], the “activity and/or spectrum of activity against bacterial strains that express KPC β-lactamases, compared with Avibactam” value in test [1] is recorded as “more active than Avibactam”. For the same molecule, the “activity against bacterial strains that express the class D cephalosporinase OXA-15, compared with Avibactam” value in test [2] is “more active than Avibactam”.
For `O=C1N2C[C@@H](CC[C@H]2c2nnc(C3CCNCC3)o2)N1OS(=O)(=O)O` [Compound 711, (2S,5R)-7-oxo-2-(5-(piperidin-4-yl)-1,3,4-oxadiazol-2-yl)-1,6-diazabicyclo[3.2.1]octan-6-yl hydrogen sulfate], the “activity and/or spectrum of activity against bacterial strains that express KPC β-lactamases, compared with Avibactam” value in test [1] is “more active than Avibactam”. Besides, the “activity against bacterial strains that express the class D cephalosporinase OXA-15, compared with Avibactam” value in test [2] was “more active than Avibactam”.
Consider `NCCCc1nnc([C@@H]2CC[C@@H]3CN2C(=O)N3OS(=O)(=O)O)o1` [Compound 720, (2S,5R)-2-(5-(3-aminopropyl)-1,3,4-oxadiazol-2-yl)-7-oxo-1,6-diazabicyclo[3.2.1]octan-6-yl hydrogen sulfate], for which the “activity and/or spectrum of activity against bacterial strains that express KPC β-lactamases, compared with Avibactam” value in test [1] was “more active than Avibactam”. In addition, the “activity against bacterial strains that express the class D cephalosporinase OXA-15, compared with Avibactam” value in test [2] is “more active than Avibactam”.
In the case of `N=C(N)NCc1nnc([C@@H]2CC[C@@H]3CN2C(=O)N3OS(=O)(=O)O)s1` [Compound 721, (2S,5R)-2-(5-(guanidinomethyl)-1,3,4-thiadiazol-2-yl)-7-oxo-1,6-diazabicyclo[3.2.1]octan-6-yl hydrogen sulfate], the “activity and/or spectrum of activity against bacterial strains that express KPC β-lactamases, compared with Avibactam” value in test [1] was “more active than Avibactam”. Further, in test [2], the “activity against bacterial strains that express the class D cephalosporinase OXA-15, compared with Avibactam” value is recorded as “more active than Avibactam”.
Consider `CNCCc1nnc([C@@H]2CC[C@@H]3CN2C(=O)N3OS(=O)(=O)O)o1` [Compound 722, (2S,5R)-2-(5-(2-(methylamino)ethyl)-1,3,4-oxadiazol-2-yl)-7-oxo-1,6-diazabicyclo[3.2.1]octan-6-yl hydrogen sulfate], for which the “activity and/or spectrum of activity against bacterial strains that express KPC β-lactamases, compared with Avibactam” value in test [1] is reported as “more active than Avibactam”. Further, in test [2], the “activity against bacterial strains that express the class D cephalosporinase OXA-15, compared with Avibactam” value is recorded as “more active than Avibactam”.
Regarding `N=C(N)NCC1(c2nnc([C@@H]3CC[C@@H]4CN3C(=O)N4OS(=O)(=O)O)o2)CC1` [Compound 723, (2S,5R)-2-(5-(1-(guanidinomethyl)cyclopropyl)-1,3,4-oxadiazol-2-yl)-7-oxo-1,6-diazabicyclo[3.2.1]octan-6-yl hydrogen sulfate], in test [1], the “activity and/or spectrum of activity against bacterial strains that express KPC β-lactamases, compared with Avibactam” value is “more active than Avibactam”. Further, the “activity against bacterial strains that express the class D cephalosporinase OXA-15, compared with Avibactam” value in test [2] is listed as “more active than Avibactam”.
For the molecule `NC1(Cc2nnc([C@@H]3CC[C@@H]4CN3C(=O)N4OS(=O)(=O)O)o2)CC1` [Compound 724, (2S,5R)-2-(5-((1-aminocyclopropyl)methyl)-1,3,4-oxadiazol-2-yl)-7-oxo-1,6-diazabicyclo[3.2.1]octan-6-yl hydrogen sulfate], in test [1], the “activity and/or spectrum of activity against bacterial strains that express KPC β-lactamases, compared with Avibactam” value was “more active than Avibactam”. In test [2], the “activity against bacterial strains that express the class D cephalosporinase OXA-15, compared with Avibactam” value is listed as “more active than Avibactam”.
`O=C1N2C[C@@H](CC[C@H]2c2nnc(CNC3CNC3)o2)N1OS(=O)(=O)O` [Compound 726, (2S,5R)-2-(5-((azetidin-3-ylamino)methyl)-1,3,4-oxadiazol-2-yl)-7-oxo-1,6-diazabicyclo[3.2.1]octan-6-yl hydrogen sulfate]: the “activity and/or spectrum of activity against bacterial strains that express KPC β-lactamases, compared with Avibactam” value in test [1] is listed as “more active than Avibactam”. For the same molecule, the “activity against bacterial strains that express the class D cephalosporinase OXA-15, compared with Avibactam” value in test [2] was “more active than Avibactam”.
Regarding `N[C@H]1C[C@H](c2nnc([C@@H]3CC[C@@H]4CN3C(=O)N4OS(=O)(=O)O)o2)C1` [Compound 727, (2S,5R)-2-(5-((1r,3S)-3-aminocyclobutyl)-1,3,4-oxadiazol-2-yl)-7-oxo-1,6-diazabicyclo[3.2.1]octan-6-yl hydrogen sulfate], the “activity and/or spectrum of activity against bacterial strains that express KPC β-lactamases, compared with Avibactam” value in test [1] is “more active than Avibactam”. For the same molecule, the “activity against bacterial strains that express the class D cephalosporinase OXA-15, compared with Avibactam” value in test [2] is listed as “more active than Avibactam”.
For the molecule `N[C@H]1C[C@@H](Cc2nnc([C@@H]3CC[C@@H]4CN3C(=O)N4OS(=O)(=O)O)o2)C1` [Compound 728, (2S,5R)-2-(5-(((1s,3R)-3-aminocyclobutyl)methyl)-1,3,4-oxadiazol-2-yl)-7-oxo-1,6-diazabicyclo[3.2.1]octan-6-yl hydrogen sulfate], in test [1], the “activity and/or spectrum of activity against bacterial strains that express KPC β-lactamases, compared with Avibactam” value is “more active than Avibactam”. Further, in test [2], the “activity against bacterial strains that express the class D cephalosporinase OXA-15, compared with Avibactam” value was “more active than Avibactam”.
As for `N[C@@H]1CC[C@H](c2nnc([C@@H]3CC[C@@H]4CN3C(=O)N4OS(=O)(=O)O)o2)C1` [Compound 729, (2S,5R)-2-(5-((1S,3R)-3-aminocyclopentyl)-1,3,4-oxadiazol-2-yl)-7-oxo-1,6-diazabicyclo[3.2.1]octan-6-yl hydrogen sulfate], in test [1], the “activity and/or spectrum of activity against bacterial strains that express KPC β-lactamases, compared with Avibactam” value is reported as “more active than Avibactam”. The “activity against bacterial strains that express the class D cephalosporinase OXA-15, compared with Avibactam” value in test [2] is listed as “more active than Avibactam”.
Consider `N=C(N)NCC(O)Cc1nnc([C@@H]2CC[C@@H]3CN2C(=O)N3OS(=O)(=O)O)o1` (stereo partly drawn) [Compound 730, (2S,5R)-2-(5-(3-guanidino-2-hydroxypropyl)-1,3,4-oxadiazol-2-yl)-7-oxo-1,6-diazabicyclo[3.2.1]octan-6-yl hydrogen sulfate], for which the “activity and/or spectrum of activity against bacterial strains that express KPC β-lactamases, compared with Avibactam” value in test [1] is listed as “more active than Avibactam”. For the same molecule, the “activity against bacterial strains that express the class D cephalosporinase OXA-15, compared with Avibactam” value in test [2] is given as “more active than Avibactam”.
On to `N=C(N)NC[C@@H](O)c1nnc([C@@H]2CC[C@@H]3CN2C(=O)N3OS(=O)(=O)O)o1` [Compound 731, (2S,5R)-2-(5-((R)-2-guanidino-1-hydroxyethyl)-1,3,4-oxadiazol-2-yl)-7-oxo-1,6-diazabicyclo[3.2.1]octan-6-yl hydrogen sulfate], for which the “activity and/or spectrum of activity against bacterial strains that express KPC β-lactamases, compared with Avibactam” value in test [1] is “more active than Avibactam”. Moreover, the “activity against bacterial strains that express the class D cephalosporinase OXA-15, compared with Avibactam” value in test [2] was “more active than Avibactam”.
As for `N=C(N)NC[C@H](O)c1nnc([C@@H]2CC[C@@H]3CN2C(=O)N3OS(=O)(=O)O)o1` [Compound 732, (2S,5R)-2-(5-((S)-2-guanidino-1-hydroxyethyl)-1,3,4-oxadiazol-2-yl)-7-oxo-1,6-diazabicyclo[3.2.1]octan-6-yl hydrogen sulfate], the “activity and/or spectrum of activity against bacterial strains that express KPC β-lactamases, compared with Avibactam” value in test [1] is given as “more active than Avibactam”. Moreover, the “activity against bacterial strains that express the class D cephalosporinase OXA-15, compared with Avibactam” value in test [2] was “more active than Avibactam”.
